What was measured:
Assay type in all cases: biochemical
[1] = tested on: rat liver mitochondria (RLM); test: Mitochondrial respiration of isolated RLM (Clark-type oxygen electrode); details: for effect on state 3 respiration: all tested concentrations (2.5-10 μM), FIG. 6B-H
Protocol: (§1) In an embodiment, and as an example, AntiOxCINs and MitoQ toxicity effects on the mitochondrial bioenergetics, namely on RLM ΔΨ and mitochondrial respiration parameters, were measured. The […] represents the main component of the electrochemical gradient generated by mitochondrial respiration and accounts for more than 90% of the total available energy. For mitochondrial respiration assays, glutamate/malate (for complex I) and succinate (for complex II) were used as substrates. In addition, the mitochondrial oxidative phosphorylation coupling index, known as respiratory control ratio (RCR, state 3/state 4 respiration) and ADP/O index (the coupling between ATP synthesis and oxygen consumption) were also calculated. AntiOxCINs and MitoQ were tested at antioxidant-relevant concentrations, with 10 μM being the highest concentration.
(§2) In an embodiment, the evaluation of AntiOxCINs functional mitochondrial toxicity profile was performed in rat liver mitochondria (RLM). […] The protein concentration was determined by the biuret assay using BSA as a standard.
In an embodiment, the evaluation of AntiOxCINs effect on mitochondrial respiration was performed as follows: the respiration of isolated RLM was evaluated polarographically with a Clark-type oxygen electrode, connected to a suitable recorder in a 1 mL thermostated water-jacketed chamber with magnetic stirring, at 37° C.^1. […] Increasing concentrations of AntiOxCINs (2.5-10 μM) were added to the reaction medium containing respiratory substrates glutamate/malate (10 mM and 5 mM respectively) or succinate (5 mM) and RLM (1 mg) and allowed to incubate for a 5 min period prior to the assay. State 2 was considered as the respiration during the 5 min incubation time with AntiOxCINs. […] State 4 was determined after ADP phosphorylation finished. Subsequent addition of oligomycin (2 μg/ml) inhibited ATP-synthase and originated the oligomycin-inhibition respiration state. Finally, 1 μM FCCP was added to induce uncoupled respiration.

[2] = tested on: rat liver mitochondria (RLM); test: Mitochondrial transmembrane electric potential (ΔΨ) of RLM, safranine fluorescence; details: for ΔΨ in succinate-energized mitochondria: AntiOxCIN6 above 5 μM, AntiOxCIN7 10 μM
Protocol: as §1, §2
Then, 1 μM FCCP was added at the end of all experiments to depolarize mitochondria. ΔΨ was calculated using a calibration curve obtained when RLM were incubated in a K^+-free reaction medium containing 200 mM sucrose, 1 mM NaH2PO4, 10 mM Tris (pH 7.4) and 10 μM EGTA, supplemented with 0.4 μg valinomicin. […] “Repolarization” corresponded to the recovery of membrane potential after the complete phosphorylation of ADP added. Lag phase reflected the time required to phosphorylate the added ADP. […] Data are means±SEM of five independent experiments.

[3] = GO radical scavenging activity (TAC assay); details: ethanol, absorbance 428 nm
Excerpt: In an embodiment, the AntiOxCINs antioxidant ranking activity hierarchy was established by in vitro non-cell methods. The selected total antioxidant capacity (TAC) assays (DPPH, ABTS and GO) involved the spectrophotometric measurement of the radical absorbance decrease as a result of an in situ radical deactivation by an antioxidant. Compounds with higher antioxidant activity display lower IC50 values. […] This decrease was attenuated/ameliorated by the increment of the spacer length and/or the introduction of additional hydroxyl group in the aromatic ring.
The radical scavenging activity of AntiOxCINs was evaluated by means of total antioxidant capacity assays based on DPPH., ABTS.^+ and GO. radicals. All these methods involved the spectrophotometric measurement of the absorbance decrease resulting from radical (DPPH., ABTS.^+ or GO.) deactivation with an antioxidant. The results were expressed in IC50, which is defined as the minimum antioxidant concentration necessary to reduce the amount of radical by 50%. Antioxidant assays were performed in a multiplate reader (Powerwave XS Microplate Reader) of Bio-Tech instruments.
In an embodiment, the GO′ scavenging activity was evaluated as follows: solutions of test compounds with concentrations from 5 μM to 75 μM were prepared in ethanol. An ethanolic solution of 5 mM GO′ was prepared and diluted to reach the absorbance of 1.00±0.02 at 428 nm. The addition (20 μL) in triplicate of compound solution to GO. solution (180 μL) was followed by absorbance measurement at 428 nm over 30 minutes, in the dark, at room temperature. […] Dose-response curves were established for the determination of IC50 values. Data are means±SEM of three independent experiments.

Structure (SMILES)	effect on state 3 respiration [1]	ADP/O ([1]; glutamate/malate, 2.5 μM)	RCR (respiratory control ratio, state 3/state 4) ([1]; glutamate/malate, 2.5 μM)	ADP/O ([1]; glutamate/malate, 5 μM)	RCR (respiratory control ratio, state 3/state 4) ([1]; glutamate/malate, 5 μM)	ADP/O ([1]; glutamate/malate, 10 μM)	RCR (respiratory control ratio, state 3/state 4) ([1]; glutamate/malate, 10 μM)	ADP/O ([1]; succinate, 2.5 μM)	RCR (respiratory control ratio, state 3/state 4) ([1]; succinate, 2.5 μM)	ADP/O ([1]; succinate, 5 μM)	RCR (respiratory control ratio, state 3/state 4) ([1]; succinate, 5 μM)	ADP/O ([1]; succinate, 10 μM)	RCR (respiratory control ratio, state 3/state 4) ([1]; succinate, 10 μM)	initial slight hyperpolarization ([2]; 2.5 μM)	ADP-induced depolarization (ΔΨ in - mV) ([2]; glutamate/malate, 2.5 μM)	Lag Phase ([2]; glutamate/malate, 2.5 μM)	Maximum potential (ΔΨ in - mV) ([2]; glutamate/malate, 2.5 μM)	Repolarization Potential (ΔΨ in - mV) ([2]; glutamate/malate, 2.5 μM)	ADP-induced depolarization (ΔΨ in - mV) ([2]; glutamate/malate, 5 μM)	Lag Phase ([2]; glutamate/malate, 5 μM)	further results
CS(=O)(=O)[O-].O=C(/C=C/c1cc(O)c(O)c(O)c1)NCCCCCCCCCC[P+](c1ccccc1)(c1ccccc1)c1ccccc1 [AntiOxCIN7, (E)-(10-(3-(3,4,5-trihydroxyphenyl)acrylamido)decyl)triphenylphosphonium methanesulfonate]	increase	2.8 ± 0.3	3.6 ± 0.2	2.4 ± 0.1	3.5 ± 0.3	2.6 ± 0.1	3.3 ± 0.3	1.8 ± 0.2	4.1 ± 0.4	1.8 ± 0.2	3.1 ± 0.2	1.7 ± 0.2	3.7 ± 0.3	25 mV	212.2 ± 7.9 mV	73.4 ± 8.4 s	251.8 ± 8.7 mV	248.3 ± 8.3 mV	212.6 ± 3.2 mV	71.0 ± 10.7 s	ΔΨ in succinate-energized mitochondria [2]: significant decrease of ΔΨ; Maximum potential (ΔΨ in - mV) ([2]; glutamate/malate, 5 μM): 248.1 ± 3.3 mV; Repolarization Potential (ΔΨ in - mV) ([2]; glutamate/malate, 5 μM): 243.5 ± 5.0 mV; ADP-induced depolarization (ΔΨ in - mV) ([2]; glutamate/malate, 10 μM): 197.1 ± 11.8 mV; Lag Phase ([2]; glutamate/malate, 10 μM): 58.6 ± 5.4 s; Maximum potential (ΔΨ in - mV) ([2]; glutamate/malate, 10 μM): 232.1 ± 9.2 mV; Repolarization Potential (ΔΨ in - mV) ([2]; glutamate/malate, 10 μM): 212.6 ± 18.4 mV; ADP-induced depolarization (ΔΨ in - mV) ([2]; succinate, 2.5 μM): 183.8 ± 6.0 mV; Lag Phase ([2]; succinate, 2.5 μM): 80.0 ± 14.9 s; Maximum potential (ΔΨ in - mV) ([2]; succinate, 2.5 μM): 205.3 ± 7.3 mV; Repolarization Potential (ΔΨ in - mV) ([2]; succinate, 2.5 μM): 199.4 ± 7.1 mV; ADP-induced depolarization (ΔΨ in - mV) ([2]; succinate, 5 μM): 176.2 ± 8.7 mV; Lag Phase ([2]; succinate, 5 μM): 76.0 ± 9.6 s; Maximum potential (ΔΨ in - mV) ([2]; succinate, 5 μM): 191.1 ± 9.0 mV; Repolarization Potential (ΔΨ in - mV) ([2]; succinate, 5 μM): 186.8 ± 7.5 mV; ADP-induced depolarization (ΔΨ in - mV) ([2]; succinate, 10 μM): 163.6 ± 3.2 mV; Lag Phase ([2]; succinate, 10 μM): 65.0 ± 8.7 s; Maximum potential (ΔΨ in - mV) ([2]; succinate, 10 μM): 176.9 ± 3.1 mV; Repolarization Potential (ΔΨ in - mV) ([2]; succinate, 10 μM): 171.0 ± 5.0 mV; IC50 [3]: 2500 nM
CS(=O)(=O)[O-].O=C(/C=C/c1cc(O)c(O)c(O)c1)NCCCCCCCC[P+](c1ccccc1)(c1ccccc1)c1ccccc1 [AntiOxCIN5, (E)-(8-(3-(3,4,5-trihydroxyphenyl)acrylamido)octyl)triphenylphosphonium methanesulfonate]	increase	2.4 ± 0.1	3.7 ± 0.4	2.5 ± 0.1	3.7 ± 0.4	2.5 ± 0.1	3.2 ± 0.1	1.6 ± 0.1	4.2 ± 0.4	1.5 ± 0.1	4.4 ± 0.8	1.6 ± 0.1	4.0 ± 0.8	25 mV	207.5 ± 6.1 mV	74.4 ± 10.7 s	249.8 ± 5.4 mV	244.7 ± 5.9 mV	207.5 ± 5.6 mV	69.8 ± 13.3 s	Maximum potential (ΔΨ in - mV) ([2]; glutamate/malate, 5 μM): 244.7 ± 7.0 mV; Repolarization Potential (ΔΨ in - mV) ([2]; glutamate/malate, 5 μM): 236.5 ± 6.8 mV; ADP-induced depolarization (ΔΨ in - mV) ([2]; glutamate/malate, 10 μM): 184.6 ± 18.7 mV; Lag Phase ([2]; glutamate/malate, 10 μM): 53.2 ± 7.6 s; Maximum potential (ΔΨ in - mV) ([2]; glutamate/malate, 10 μM): 215.1 ± 22.3 mV; Repolarization Potential (ΔΨ in - mV) ([2]; glutamate/malate, 10 μM): 199.9 ± 26.0 mV; ADP-induced depolarization (ΔΨ in - mV) ([2]; succinate, 2.5 μM): 177.2 ± 7.7 mV; Lag Phase ([2]; succinate, 2.5 μM): 80.2 ± 11.8 s; Maximum potential (ΔΨ in - mV) ([2]; succinate, 2.5 μM): 196.2 ± 8.6 mV; Repolarization Potential (ΔΨ in - mV) ([2]; succinate, 2.5 μM): 190.6 ± 7.8 mV; ADP-induced depolarization (ΔΨ in - mV) ([2]; succinate, 5 μM): 173.6 ± 6.8 mV; Lag Phase ([2]; succinate, 5 μM): 67.2 ± 13.4 s; Maximum potential (ΔΨ in - mV) ([2]; succinate, 5 μM): 190.1 ± 6.8 mV; Repolarization Potential (ΔΨ in - mV) ([2]; succinate, 5 μM): 184.0 ± 7.1 mV; ADP-induced depolarization (ΔΨ in - mV) ([2]; succinate, 10 μM): 162.2 ± 7.7 mV; Lag Phase ([2]; succinate, 10 μM): 58.4 ± 10.2 s; Maximum potential (ΔΨ in - mV) ([2]; succinate, 10 μM): 180.8 ± 4.0 mV; Repolarization Potential (ΔΨ in - mV) ([2]; succinate, 10 μM): 168.4 ± 9.3 mV; IC50 [3]: 2300 nM
CS(=O)(=O)[O-].O=C(/C=C/c1ccc(O)c(O)c1)NCCCCCCCCCC[P+](c1ccccc1)(c1ccccc1)c1ccccc1 [AntiOxCIN6, (E)-(10-(3-(3,4-dihydroxyphenyl)acrylamido)decyl)triphenylphosphonium methanesulfonate]	increase	2.5 ± 0.1	3.1 ± 0.3	2.5 ± 0.2	3.3 ± 0.2	2.3 ± 0.1	2.6 ± 0.1	1.5 ± 0.1	3.7 ± 0.6	1.5 ± 0.1	3.2 ± 0.3	1.6 ± 0.11	2.6 ± 0.3	10 mV	202.5 ± 5.7 mV	73.2 ± 8.8 s	237.9 ± 5.9 mV	233.3 ± 6.5 mV	197.9 ± 5.0 mV	75.2 ± 12.5 s	ΔΨ in succinate-energized mitochondria [2]: significant decrease of ΔΨ; Maximum potential (ΔΨ in - mV) ([2]; glutamate/malate, 5 μM): 227.5 ± 6.5 mV; Repolarization Potential (ΔΨ in - mV) ([2]; glutamate/malate, 5 μM): 220.7 ± 6.2 mV; ADP-induced depolarization (ΔΨ in - mV) ([2]; glutamate/malate, 10 μM): 174.2 ± 16.8 mV; Lag Phase ([2]; glutamate/malate, 10 μM): 47.8 ± 8.7 s; Maximum potential (ΔΨ in - mV) ([2]; glutamate/malate, 10 μM): 200.5 ± 16.80 mV; Repolarization Potential (ΔΨ in - mV) ([2]; glutamate/malate, 10 μM): 185.3 ± 20.8 mV; ADP-induced depolarization (ΔΨ in - mV) ([2]; succinate, 2.5 μM): 166.8 ± 6.1 mV; Lag Phase ([2]; succinate, 2.5 μM): 77.8 ± 11.2 s; Maximum potential (ΔΨ in - mV) ([2]; succinate, 2.5 μM): 181.9 ± 6.2 mV; Repolarization Potential (ΔΨ in - mV) ([2]; succinate, 2.5 μM): 177.7 ± 4.5 mV; ADP-induced depolarization (ΔΨ in - mV) ([2]; succinate, 5 μM): 167.1 ± 5.7 mV; Lag Phase ([2]; succinate, 5 μM): 83.4 ± 11.5 s; Maximum potential (ΔΨ in - mV) ([2]; succinate, 5 μM): 178.3 ± 4.7 mV; Repolarization Potential (ΔΨ in - mV) ([2]; succinate, 5 μM): 178.1 ± 5.1 mV; ADP-induced depolarization (ΔΨ in - mV) ([2]; succinate, 10 μM): 143.6 ± 11.0 mV; Lag Phase ([2]; succinate, 10 μM): 62.2 ± 11.2 s; Maximum potential (ΔΨ in - mV) ([2]; succinate, 10 μM): 151.7 ± 9.3 mV; Repolarization Potential (ΔΨ in - mV) ([2]; succinate, 10 μM): 149.0 ± 11.2 mV; IC50 [3]: 2700 nM

— US10913757B2, “Hydroxycinnamic derivatives, methods and uses thereof” (UNIVERSIDADE DO PORTO, priority 2016, dated 2021)
